From patent EP0878193A1, “REMEDIES FOR HERPESVIRUS INFECTION CAUSED BY HERPESVIRUS AND PREVENTIVES FOR RECURRENCE OF THE INFECTION BOTH CONTAINING TRITERPENE DERIVATIVES AS THE ACTIVE INGREDIENT” (Showa Shell Sekiyu K.K., priority 1996, dated 1997)
Values after ≈ are worked out from the molar mass of the structure shown.

Tests used:
[1] = system: HSV-2; test: plaque formation test (antiviral activity, CPE as index) on Vero cells; type: cell-based, herpes simplex virus type 2 (strain Ito 1262); settings: Human alphaherpesvirus 2, Vero, 50% plaque formation inhibition concentration; HSV-2 on Vero cells; three experiments; read-out: EC50 (µg/mℓ) (average ± standard deviation)
Text: In order to examine antiviral activity, herpes simplex virus type 1 (strain 7401 H) (referred sometimes to as "HSV-1" hereinafter), TK deficiency herpes simplex virus type 1 (strain B 2006) (referred sometimes to as "TK^-" hereinafter), phosphono acetic acid (referred to as "PAA" hereinafter) resistant herpes simplex virus type 1 (PAA resistant strain derived from 7401 H) (referred sometimes to as "AP^r1" hereinafter) and herpes simplex virus type 2 (strain Ito 1262) (referred sometimes to as "HSV-2" hereinafter) were used as viruses. […]
That is, the above-described virus solution was diluted to a concentration of 100 plaques/0.2 mℓ, the thus diluted virus solution (0.2 mℓ) was inoculated into Vero cells which have been cultured into monolayer in a plastic dish of 60 mm in diameter, and the mixture was incubated at 37°C for 1 hour to effect adsorption of viruses to the Vero cells. After the adsorption, 2% fetal bovine serum-added MEM medium (5 mℓ) containing each drug solution to be measured having varied drug concentration and 0.8% methyl cellulose was overlaid on the just described virus-adsorbed monolayer Vero cells which were subsequently cultured at 37°C for 2 to 5 days to effect plaque formation. […] The number of plaques was counted under a stereoscopic microscope. […]

[2] = system: HSV-1; test: skin infection of BALB/c mice with HSV-1, scoring of affected parts and survival; type: in vivo
Text: In order to illustratively confirm the effect of 3-oxo-olean-18-en-28-oic acid (moronic acid) to inhibit growth of viruses after viral infection, skin cell tissues of BALB/c mice were infected with the strain HSV-1 and then the parts affected thereafter were observed and scored. The scores were made based on the average time (days ± standard deviation) until the affected parts reached score 2 (local efflorescence, bulla, erosion) or score 6 (slight shingles) and based on the survival days.

[3] = toxicity test in non-infected mice; type: in vivo
Protocol: Next, in order to examine toxicity of moronic acid, a toxicity test was carried out by administering control (water only) or 1 mg, 5 mg or 10 mg per kg mouse body weight of 3-oxo-olean-18-en-28-oic acid (moronic acid) to mice which have not been infected with viruses. Mice having a weight of 18 to 21 g/animal just before the commencement of the test were used in five animals per group. None of the mice died before completion of the test. 3-Oxo-olean-18-en-28-oic acid (moronic acid) was orally administered every day and three times a day.

[4] = system: Vero cells; test: cytotoxicity (observation, no method given); settings: at the concentration by which it showed anti-herpesvirus activity
[5] = system: AP^r1; test: viral DNA synthesis, slot-blot hybridization with radiation-labeled probe in Vero cells; type: cell-based; settings: 0, 5, 10 or 20 µg/mℓ, even at 20 µg/mℓ, Fig. 2
Protocol: (§1) Finally, in order to examine effects of moronic acid on the viral synthesis ability, the amount of virus particles in cultured cells was measured by the slot-blot hybridization described in J. Traditional Med., 12, 187 - 194 (1995). Using a radiation-labeled probe, viral DNA synthesis ability of herpesvirus strains HSV-1 and AP^r1 was measured just after adsorption of the viruses to animal cells (Vero cells) or when concentration of 3-oxo-olean-18-en-28-oic acid (moronic acid) was changed (0, 5, 10 or 20 µg/mℓ), with the results shown as a chart in Fig. 2 (photograph).
(§2) In Fig. 2, rough amounts of each herpesvirus are shown by the strength of black parts. For the sake of comparison, DNA copy number of a virus TK^- is shown on the right-side column as a reference strength.

[6] = system: HSV-1; test: as above; type: cell-based, herpes simplex virus type 1 (strain 7401 H); settings: HSV-1 in Vero cells; 0, 5, 10 or 20 µg/mℓ; even at 20 µg/mℓ; Fig. 2
Protocol: as §1, §2

[7] = Exp. 3, 1 mg/kg oral three times a day
[8] = Exp. 3, 10 mg/kg oral three times a day
[9] = Exp.1, 1 mg/kg oral three times a day
[10] = Exp.2, 0.2 mg/kg oral three times a day
[11] = Exp.2, 1 mg/kg oral three times a day
[12] = Exp.2, 5 mg/kg oral three times a day
[13] = Exp. 1, 1 mg/kg orally every day, three times a day, non-infected mice, five per group

## CC1(C)C=C2[C@H]3CC[C@@H]4[C@@]5(C)CCC(=O)C(C)(C)[C@@H]5CC[C@@]4(C)[C@]3(C)CC[C@@]2(C(=O)O)CC1 [Moronic acid, 3-oxo-olean-18-en-28-oic acid]
[1]
  EC50: 5.8 ± 0.5 µg/mL (≈ 12.8 µM)
[2]; [7]
  Average time (days ± standard deviation) Score-2 (local efflorescence, bulla, erosion): 3.80 ± 0.63 b days
  Average time (days ± standard deviation) Score-6 (slight shingles): 5.60 ± 0.71 days
  Average time (days ± standard deviation) Survival: 7.70 ± 2.16 days
[2]; [8]
  Average time (days ± standard deviation) Score-2 (local efflorescence, bulla, erosion): 3.70 ± 0.48 b days
  Average time (days ± standard deviation) Score-6 (slight shingles): 5.30 ± 0.48 days
  Average time (days ± standard deviation) Survival: 6.80 ± 0.42 days
[2]; [9]
  Average time (days ± standard deviation) Score-2 (local efflorescence, bulla, erosion): 3.90 ± 0.70 b days
  Average time (days ± standard deviation) Score-6 (slight shingles): 5.70 ± 0.68 b days
  Average time (days ± standard deviation) Survival: 7.30 ± 1.16 b days
[2]; [10]
  Average time (days ± standard deviation) Score-2 (local efflorescence, bulla, erosion): 4.00 ± 0.47 d days
  Average time (days ± standard deviation) Score-6 (slight shingles): 5.78 ± 0.97 days
  Average time (days ± standard deviation) Survival: 6.89 ± 0.33 days
[2]; [11]
  Average time (days ± standard deviation) Score-2 (local efflorescence, bulla, erosion): 3.60 ± 0.70 days
  Average time (days ± standard deviation) Score-6 (slight shingles): 5.40 ± 0.52 days
  Average time (days ± standard deviation) Survival: 7.00 ± 1.49 days
[2]; [12]
  Average time (days ± standard deviation) Score-2 (local efflorescence, bulla, erosion): 3.90 ± 0.74 b days
  Average time (days ± standard deviation) Score-6 (slight shingles): 5.40 ± 0.53 days
  Average time (days ± standard deviation) Survival: 7.10 ± 1.52 days
[3]; Exp. 1, 1 mg/kg orally every day, three times a day, non-infected mice
  Death rate: 0/5
[3]; [13]
  (Average body weight ± standard deviation) Administration period 7 days: 19.8 ± 1.4
  (Average body weight ± standard deviation) Administration period 36 days: 22.6 ± 0.8
[3]; Exp. 1, 5 mg/kg orally every day, three times a day, non-infected mice
  Death rate: 0/5
[3]; Exp. 2, 10 mg/kg orally every day, three times a day, non-infected mice
  Death rate: 0/5
[3]; even at the maximum concentration of 10 mg/kg, after the lapse of time of 25 days
  deaths of mice: none of the five mice died
[3]; mouse, in vivo, po, 5 mg/kg
  (Average body weight ± standard deviation) Administration period 7 days: 19.9 ± 1.4
  (Average body weight ± standard deviation) Administration period 36 days: 21.0 ± 0.8
[3]; mouse, in vivo, po, 10 mg/kg
  (Average body weight ± standard deviation) Administration period 7 days: 20.1 ± 1.2
  (Average body weight ± standard deviation) Administration period 21 days: 20.4 ± 1.0
[4]
  cytotoxicity: not observed
[5]
  effect to inhibit virus DNA synthesis: not found
[6]
  effect to inhibit virus DNA synthesis: not found
